Data on 6 molecules can be found in ChEMBL document CHEMBL4819028, “Structures and Biosynthetic Pathway of Coprisamides C and D, 2-Alkenylcinnamic Acid-Containing Peptides from the Gut Bacterium of the Carrion Beetle Silpha perforata” (J Nat Prod, 2021).

For data set [1], the system named is Mycobacterium tuberculosis. Kind of data set: Antitubercular activity against Mycobacterium tuberculosis mc2 6230 assessed as inhibition of bacterial growth incubated for 5 days by REMA. It counts as functional. The note with it: mc2 6230, 120 h, time 5 day.
For data set [2], the target named is NAD(P)H dehydrogenase [quinone] 1 (Mus musculus) (UniProt Q64669). Kind of data set: Induction of quinone reductase activity in mouse Hepa1c1c7 cells at 10 uM incubated for 24 hrs by MTT based assay. In kind it is cell-based. The note with it: filed as activator.
Data set [3] is described as follows: Cytotoxicity against mouse Hepa1c1c7 cells at higher concentration. It counts as cell-based.
The subject of a further data set is Staphylococcus aureus. In words: Antibacterial activity against Staphylococcus aureus. In kind it is functional, organism-based.
Another data set concerns Enterococcus faecalis. Kind of data set: Antibacterial activity against Enterococcus faecalis. In kind it is functional, organism-based.
A further data set has as its system Enterococcus faecium. Kind of data set: Antibacterial activity against Enterococcus faecium. In kind it is functional, organism-based.
The next data set has as its system Klebsiella pneumoniae. In words: Antibacterial activity against Klebsiella pneumoniae. In kind it is functional, organism-based.
In a further data set the test system is Salmonella enterica. Kind of data set: Antibacterial activity against Salmonella enterica. It counts as functional, organism-based.
For another data set, the system named is Escherichia coli. In words: Antibacterial activity against Escherichia coli. In kind it is functional, organism-based.
A further data set deals with Aspergillus fumigatus. Kind of data set: […] activity against Aspergillus fumigatus. In kind it is functional, organism-based.
The subject of another data set is Trichophyton rubrum. In words: […] activity against Trichophyton rubrum. It counts as functional, organism-based.
For data set [4], the system named is Trichophyton mentagrophytes. Kind of data set: […] activity against Trichophyton mentagrophytes. It counts as functional, organism-based.
A further data set concerns Candida albicans. Kind of data set: […] activity against Candida albicans. In kind it is functional, organism-based.

In brackets after ≈: the same amount, converted by molar mass. Activity calls are given as the source filed them. The rule behind the calls is not given here.

NAD(P)H dehydrogenase [quinone] 1 (Mus musculus), sequence (Q64669 whole entry): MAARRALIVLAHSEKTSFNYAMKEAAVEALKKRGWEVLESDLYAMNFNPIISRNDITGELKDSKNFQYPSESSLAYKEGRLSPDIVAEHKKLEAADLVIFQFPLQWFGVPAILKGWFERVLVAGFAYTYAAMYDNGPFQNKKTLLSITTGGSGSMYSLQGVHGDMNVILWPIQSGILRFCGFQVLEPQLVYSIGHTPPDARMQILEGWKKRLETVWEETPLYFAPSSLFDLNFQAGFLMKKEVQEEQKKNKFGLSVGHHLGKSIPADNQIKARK

Consider `NNC(=O)c1ccncc1` [ISONIAZID], for which the MIC50 in data set [1] turned out to be 0.03 µg/mL (≈ 0.219 µM).
In turn, `CC(C)C/C=C/C=C/c1ccccc1/C=C/C(=O)N[C@H](C)C(=O)N[C@@H]1COC(=O)[C@H]([C@H](C)C(=O)O)NC(=O)[C@H](CNC(=O)[C@@H](N)C(C)C)NC(=O)[C@H](C(C)C)NC(=O)[C@@H](CC(C)C)NC1=O` gave a fold change (FC) in data set [2] of 2.3. In addition, the Activity entry in data set [3] is reported as “Toxic”. Also, the outcome with Staphylococcus aureus, in the data set with Enterococcus faecalis, with Enterococcus faecium, in the data set on Klebsiella pneumoniae, in the data set on Salmonella enterica and with Escherichia coli was inactive. In addition, the outcome (with Aspergillus fumigatus; with Trichophyton rubrum; in data set [4]; with Candida albicans) was inactive.
As to `CC[C@@H](CO)NCCN[C@@H](CC)CO` [ETHAMBUTOL], the MIC50 in [1] is 0.83 µg/mL (≈ 4.06 µM).
Regarding `CC(C)/C=C/C/C=C\c1ccccc1/C=C/C(=O)N[C@H](C)C(=O)N[C@@H]1COC(=O)[C@H]([C@H](C)C(=O)O)NC(=O)[C@H](CNC(=O)[C@@H](N)C(C)C)NC(=O)[C@H](C(C)C)NC(=O)[C@@H](CC(C)C)NC1=O`, in data set [1], the MIC50 came out at 82.8 µg/mL (≈ 89.7 µM). In [2], the fold change (FC) was found to be 2.4. Further, in [3], the Activity result is given as “Toxic”. Moreover, the outcome in the data set with Staphylococcus aureus, in the data set with Enterococcus faecalis, in the data set on Enterococcus faecium, in the data set on Klebsiella pneumoniae, in the data set on Salmonella enterica and in the data set with Escherichia coli was inactive. The outcome (with Aspergillus fumigatus; with Trichophyton rubrum; in data set [4]; with Candida albicans) was inactive.
`C/C=C/C=C/C=C/c1ccccc1/C=C/C(=O)NC(C)C(=O)N[C@@H]1COC(=O)[C@H]([C@H](C)C(=O)O)NC(=O)[C@H](CNC(=O)C(N)C(C)C)NC(=O)[C@H](C(C)C)NC(=O)[C@@H](CC(C)C)NC1=O` (some centres undefined) had a fold change (FC) in data set [2] of 2.1.
Same read-out and setting: the value for `C/C=C/C=C/C/C=C\c1ccccc1/C=C/C(=O)NC(C)C(=O)N[C@@H]1COC(=O)[C@H]([C@H](C)C(=O)O)NC(=O)[C@H](CNC(=O)C(N)C(C)C)NC(=O)[C@H](C(C)C)NC(=O)[C@@H](CC(C)C)NC1=O` (some centres undefined) was 2.6.

Broadly, the MIC50 is the lowest concentration that inhibits either 50% of growth or 50% of the strains tested, depending on the study.
